This data set is described as follows: Percent encapsulation of mRNA in lipid nanoparticles (Quant-iT Ribogreen). The settings on record: Table 2; leptin mRNA in LNP with the cationic lipid. It is filed as physicochemical. The protocol:
All equipment and disposable supplies are certified free of RNase activity by the manufacturer or rendered RNase free by use of the RNaseZap reagent (LifeTechnologies). mRNA is encapsulated at a cationic lipid amine to mRNA phosphate (N:P) molar ratio of 4:1. Lipids (cationic lipid, DSPC, cholesterol and lipidated PEG or stealth lipid) are dissolved in ethanol. The molar ratios are 40:10:38:2, respectively. The mixture is sonicated briefly, then gently agitated for 5 minutes and then maintained at 37° C. until use. mRNA is exchanged into citrate buffer pH 5.8-6.0 by use of Amicon Ultra-15 centrifugal concentrators, and the final concentration is adjusted to 0.5 mg/ml and held at 37° C. until use. An equal volume of lipids in ethanol, mRNA in citrate buffer, and citrate buffer alone are drawn into disposable syringes. Tubing leading from syringes containing lipids and mRNA are attached to the T junction, and tubing leading from the syringe containing citrate buffer alone is paired with the tubing exiting the T-junction over a collection vessel containing a stir bar on an active stir plate. Syringes are placed in a syringe pump set to expel contents at a flow rate of 1 ml per minute.
The pump is activated, and the collected mRNA in lipid nanoparticles is transferred to SnakeSkin dialysis tubing (10,000 MWCO, Thermo Scientific). Material is dialyzed against RNAse- and pyrogen-free 1× phosphate buffered saline overnight at 4° C.
Percent encapsulation of mRNA in lipid nanoparticles is determined using the Quant-iT Ribogreen RNA Assay kit (Life Technologies). The LNP-mRNA suspension is assayed in buffer (mRNA outside the particle), and buffer plus Triton X-100 detergent (total mRNA). The difference calculated is the mRNA inside the particle. Prepare a 1000 ng/mL stock from the RNA provided in the kit and use this to generate a standard curve (0 ng/ml, 15.63-1000 ng/ml) in TE and TE+0.75% Triton X-100. Prepare LNP-mRNA samples in TE buffer and TE buffer +0.75% Triton X-100 with appropriate dilution so that reading is in the range of standard curve (400-2,000 fold). In a 384-well plate (Costar non-treated #3573) add 0.04 ml of standard (in duplicate) or sample (in triplicate) per well. Dilute Ribogreen reagent 240-fold in TE buffer and add 0.06 ml per well. Mix contents of wells and measure fluorescence (excitation=480 nm, emission=520 nm). Subtract background values (no RNA) from standard and test sample values and determine the concentrations of RNA in the samples using the standard curves. Determine the percent encapsulation of the sample by dividing the difference in concentrations between sample+triton and sample in buffer alone by the sample+triton concentration.
Take `CCCCCCCCCCCCC(CCOC(=O)CCCCC(OCCCCCCCC)OCCCCCCCC)OC(=O)OCCCN1CCOCC1` (stereo not drawn) [Example 112, 3-(((3-morpholinopropoxy)carbonyl)oxy) pentadecyl 6,6-bis(octyloxy) hexanoate]: the “% encapsulation mRNA Leptin” value is 32.9%.

As to `CCCCCCCCCCCCC(CCOC(=O)CCCCC(OCCCCCCCC)OCCCCCCCC)OC(=O)CCCCN(CC)CC` (stereo not drawn) [Example 123, 3-((5-(diethylamino)pentanoyl)oxy)pentadecyl 6,6-bis(octyloxy)hexanoate], the “% encapsulation mRNA Leptin” value is 83.8%. Turning to `CCCCCCCCCCCCC(CCC(=O)OC(COC(=O)CCCCCCCCCCC)COC(=O)CCCCCCCCCCC)OC(=O)OCCCN(C)CC` (stereo not drawn) [Example 89, 2-((4-(((3-(ethyl(methyl)amino)propoxy)carbonyl)oxy)hexadecanoyl)oxy)propane-1,3-diyl didodecanoate], the “% encapsulation mRNA Leptin” value stood at 87.0%.

In the case of `CCCCCCCCCCCCC(CCOC(=O)CCCCC(OCCCCCCCC)OCCCCCCCC)OC(=O)[C@@H]1CCCN1C` (stereo partly drawn) [Example 118, (2S)-1-((6,6-bis(octyloxy)hexanoyl)oxy)pentadecan-3-yl 1-methylpyrrolidine-2-carboxylate], the “% encapsulation mRNA Leptin” value was 12.8%. Turning to `CCCCCCCCCCCCC(CCOC(=O)CCCCC(OCC(CCC)CCC)OCC(CCC)CCC)OC(=O)OCCCN(CC)CC` (stereo not drawn) [Example 114, 3-(((3-(diethylamino)propoxy)carbonyl)oxy)pentadecyl 6,6-bis((2-propylpentyl)oxy)hexanoate], the “% encapsulation mRNA Leptin” value came out at 98.4%.

Consider `CCCCCCCCCCCCC(CCOC(=O)CCCCC(OCCCCCCCC)OCCCCCCCC)OC(=O)OCC1CCN(C)CC1` (stereo not drawn) [Example 111, 3-((((1-methylpiperidin-4-yl)methoxy)carbonyl)oxy)pentadecyl 6,6-bis(octyloxy)hexanoate], for which the “% encapsulation mRNA Leptin” value was 74.7%.

For `CCCCCCCCCCC(CCOC(=O)CCCCC(OCCCCCCCC)OCCCCCCCC)OC(=O)OCCCN(CC)CC` (stereo not drawn) [Example 126, 3-(((3-(diethylamino)propoxy)carbonyl)oxy)tridecyl 6,6-bis(octyloxy)hexanoate], the “% encapsulation mRNA Leptin” value turned out to be 97.4%. `CCCCCCCCCCCCC(CCOC(=O)OCCCC(OCCCCCCCC)OCCCCCCCC)OC(=O)OCCCN(CC)CC` (stereo not drawn) [Example 130, 4,4-bis(octyloxy)butyl (3-(diethylamino)propyl) pentadecane-1,3-diyl dicarbonate]: the “% encapsulation mRNA Leptin” value was 97.8%. As for `CCCCCCCCCCCCC(CCOC(=O)CCCCC(OCCCCCCCC)OCCCCCCCC)OC(=O)OCCCCN(CC)CC` (stereo not drawn) [Example 109, 3-(((4-(diethylamino)butoxy)carbonyl)oxy)pentadecyl 6,6-bis(octyloxy)hexanoate], the “% encapsulation mRNA Leptin” value is given as 80.6%.

Regarding `CCCCCCCC(=O)OCCCCCCCCCCC(CCOC(=O)CCCCCC(CCCCCC)CCCCCC)OC(=O)OCCCN(C)C` (stereo not drawn) [Example 64, 3-(((3-(dimethylamino)propoxy)carbonyl)oxy)-13-(octanoyloxy)tridecyl 7-hexyltridecanoate], the “% encapsulation mRNA Leptin” value came out at 93.0%. As to `CCCCCCCCOC(CCCCC(=O)OCCC(CCCCCCCC)OC(=O)OCCCN(CC)CC)OCCCCCCCC` (stereo not drawn) [Example 125, 3-(((3-(diethylamino)propoxy)carbonyl)oxy)undecyl 6,6-bis(octyloxy)hexanoate], the “% encapsulation mRNA Leptin” value is recorded as 95.1%.

`CCCCCCCCCCCCC(CCOC(=O)CCCCC1OC(CCCCCCC)CC(CCCCCCC)O1)OC(=O)OCCCN(CC)CC` (stereo not drawn) [Example 124, 3-(((3-(diethylamino)propoxy)carbonyl)oxy)pentadecyl 5-(4,6-diheptyl-1,3-dioxan-2-yl)pentanoate]: the “% encapsulation mRNA Leptin” value is on record as 98.0%. The result for `CCCCCCCC/C=C\CCCCCCCC(=O)OCC(COC(=O)CCCCCCC/C=C\CCCCCCCC)OC(=O)CCC(CCCCCCCCCCCC)OC(=O)OCCCN(C)C` (stereo not drawn) [Example 83, (Z)-2-((4-(((3-(dimethylamino)propoxy)carbonyl)oxy)hexadecanoyl)oxy)propane-1,3-diyl dioleate] reads 48.9%; that for `CCCCCCCCCCCCC(CCOC(=O)CCCCC(OCCCCCCCC)OCCCCCCCC)OC(=O)OCCCN1CCNCC1` (stereo not drawn) [Example 108, 3-(((3-(piperazin-1-yl)propoxy)carbonyl)oxy)pentadecyl 6,6-bis(octyloxy)hexanoate], 94.6%; that for `CCCCCCCCCCCCC(CCCOC(=O)CCCCC(COC(=O)CCCCCCC)COC(=O)CCCCCCC)OC(=O)O[C@H]1CCN(C)C1` (stereo partly drawn) [Example 134, 2-(5-((4-(((((S)-1-methylpyrrolidin-3-yl)oxy)carbonyl)oxy)hexadecyl)oxy)-5-oxopentyl)propane-1,3-diyl dioctanoate], 96.6%.

On to `CCCCCCCCCCCCC(CCOC(=O)CCCCC(OCCCCCCCC)OCCCCCCCC)OC(=O)[C@H]1CCCN1` (stereo partly drawn) [Example 119, (2R)-1-((6,6-bis(octyloxy)hexanoyl)oxy)pentadecan-3-yl pyrrolidine-2-carboxylate], for which the “% encapsulation mRNA Leptin” value came to 95.7%.

Regarding `CCCCCCCCCCCCC(CCOC(=O)CCCCC(COC(=O)CCCCCCC)COC(=O)CCCCCCC)OC(=O)OCCCN1CCCCC1` (stereo not drawn) [Example 141, 2-(5-oxo-5-((3-(((3-(piperidin-1-yl)propoxy)carbonyl)oxy)pentadecyl)oxy)pentyl)propane-1,3-diyl dioctanoate], the “% encapsulation mRNA Leptin” value was determined as 94.9%. In the case of `CCCCCCCCCCCCC(CCC(=O)OC(COC(=O)CCCCCCC)COC(=O)CCCCCCC)OC(=O)OCCCN(C)CC` (stereo not drawn) [Example 93, 2-((4-(((3-(ethyl(methyl)amino)propoxy)carbonyl)oxy)hexadecanoyl)oxy)propane-1,3-diyl dioctanoate], the “% encapsulation mRNA Leptin” value turned out to be 82.0%. For `CCCCCCCCCCCCC(CCCC(=O)OCCCC(OCCCCCCCC)OCCCCCCCC)OC(=O)OCCCN(CC)CC` (stereo not drawn) [Example 129, 4,4-bis(octyloxy)butyl 5-(((3-(diethylamino)propoxy)carbonyl)oxy)heptadecanoate], the “% encapsulation mRNA Leptin” value is listed as 96.8%. As to `CCCCCCCCCCCCC(OC(=O)OCCCN(CC)CC)C(=O)OC(COC(=O)CCCCCCC)COC(=O)CCCCCCC` (stereo not drawn) [Example 100, 2-((2-(((3-(diethylamino)propoxy)carbonyl)oxy)tetradecanoyl)oxy)propane-1,3-diyl dioctanoate)], the “% encapsulation mRNA Leptin” value is listed as 91.5%. `CCCCCCCCCCCCC(CCOC(=O)CCC(OCCCCCCCC)OCCCCCCCC)OC(=O)OCCCN(C)C` (stereo not drawn) [Example 106, 3-(((3-(dimethylamino)propoxy)carbonyl)oxy)pentadecyl 4,4-bis(octyloxy)butanoate]: the “% encapsulation mRNA Leptin” value turned out to be 96.3%. Take `CCCCCCCCCCCCC(CCOC(=O)CCCCC(OCCCCCCCC)OCCCCCCCC)OC(=O)[C@H]1CCCN1C` (stereo partly drawn) [Example 117, (2R)-1-((6,6-bis(octyloxy)hexanoyl)oxy) pentadecan-3-yl 1-methyl pyrrolidine-2-carboxylate]: the “% encapsulation mRNA Leptin” value is given as 5.0%. For the compound `CCCCCCCCCCCCC(CCOC(=O)CCCCC(OCCCCCCCC)OCCCCCCCC)OC(=O)OCCCN1CCN(C)CC1` (stereo not drawn) [Example 110, 3-(((3-(4-methylpiperazin-1-yl)propoxy)carbonyl)oxy)pentadecyl 6,6-bis(octyloxy)hexanoate], the “% encapsulation mRNA Leptin” value amounted to 59.3%. Turning to `CCCCCCCCCCCCC(CCOC(=O)CCCCC(OCCCCCCCC)OCCCCCCCC)OC(=O)OCCCN1CCCCC1` (stereo not drawn) [Example 107, 3-(((3-(piperidin-1-yl)propoxy)carbonyl)oxy)pentadecyl 6,6-bis(octyloxy)hexanoate], the “% encapsulation mRNA Leptin” value was 94.5%.

The values are drawn from patent US11013696B2, “Lipids and lipid compositions for the delivery of active agents” (Novartis AG, priority 2013, dated 2021).
